Patent US9738634B2, “Heterocyclic amide compound and herbicide” (SYNGENTA PARTICIPATIONS AG, priority 2013, dated 2017)

Key:
Format in all cases: in vivo
Conditions in all cases: treatment dosage 320 g/ha
catchweed [1] = test: Test Example 4: weedkilling efficacy by foliar treatment; O: catchweed
Procedure, shortened: (§1)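 Seeds are spot-sown into sterilized diluvial soil and covered with about 1.5 cm of soil. After 14 days' greenhouse growth at 25 to 30° C, plants are sprayed on stems and leaves with diluted emulsion at the stated g/ha rate, then scored at 3 weeks.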

Indian mallow [2] = test: Test Example 3: weedkilling efficacy through soil treatment; K: Indian mallow
Procedure, shortened: (§2)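 Crop and weed responses were judged three weeks after a uniform surface spray of the water-diluted emulsion at the given g/ha rate. Seeds sat beneath about 1.5 cm of sterilized diluvial soil, and boxes stood in a greenhouse at 25 to 30° C.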

birds-eye speedwell [3] = test: Test Example 4: weedkilling efficacy by foliar treatment; p: birds-eye speedwell
Procedure, shortened: as §1

black-grass [4] = test: Test Example 4: weedkilling efficacy by foliar treatment; H: black-grass
Procedure, shortened: as §1

crabgrass [5] = test: Test Example 4: weedkilling efficacy by foliar treatment; D: crabgrass
Procedure, shortened: as §1

chickweed [6] = test: Test Example 4: weedkilling efficacy by foliar treatment; N: chickweed
Procedure, shortened: as §1

directly sown rice [7] = test: Test Example 4: foliar treatment, effect on crop; b: directly sown rice
Procedure, shortened: as §1

fig-leafed goosefoot [8] = test: Test Example 4: weedkilling efficacy by foliar treatment; M: fig-leafed goosefoot
Procedure, shortened: as §1

beet [9] = test: Test Example 3: soil treatment, effect on crop; f: beet
Procedure, shortened: as §2

barnyard grass [10] = test: Test Example 1: weedkilling efficacy, preemergent weed treatment in the submerged state; A: barnyard grass
Procedure, shortened: (§3)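 Pots of alluvial soil were flooded to a 4 cm depth. Mixed weed seeds were sown and 2.5 leaf-stage rice seedlings transplanted. On sowing day, water-diluted emulsion was applied to the water surface (dose in g/ha). After 3 weeks at 25–30 °C, effects were rated.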

green foxtail [11] = test: Test Example 3: weedkilling efficacy through soil treatment; E: green foxtail
Procedure, shortened: as §2

redroot pigweed [12] = test: Test Example 3: weedkilling efficacy through soil treatment; L: redroot pigweed
Procedure, shortened: as §2

oval-leafed pondweed [13] = test: Test Example 2: weedkilling efficacy, growth period weed treatment in the submerged state; C: oval-leafed pondweed
Procedure, shortened: (§4)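 Weeds treated at the 1-2 leaf stage by application of diluted emulsion onto floodwater (4 cm depth, alluvial soil) at specified g/ha. Grown in greenhouse at 25 to 30° C; herbicidal effect rated three weeks after treatment.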

black-grass [14] = test: Test Example 3: weedkilling efficacy through soil treatment; H: black-grass
Procedure, shortened: as §2

chickweed [15] = test: Test Example 3: weedkilling efficacy through soil treatment; N: chickweed
Procedure, shortened: as §2

directly sown rice [16] = test: Test Example 3: soil treatment, effect on crop; b: directly sown rice
Procedure, shortened: as §2

wild oat [17] = test: Test Example 3: weedkilling efficacy through soil treatment; G: wild oat
Procedure, shortened: as §2

wheat [18] = test: Test Example 3: soil treatment, effect on crop; e: wheat
Procedure, shortened: as §2

crabgrass [19] = test: Test Example 3: weedkilling efficacy through soil treatment; D: crabgrass
Procedure, shortened: as §2

redroot pigweed [20] = test: Test Example 4: weedkilling efficacy by foliar treatment; L: redroot pigweed
Procedure, shortened: as §1

fig-leafed goosefoot [21] = test: Test Example 3: weedkilling efficacy through soil treatment; M: fig-leafed goosefoot
Procedure, shortened: as §2

Italian ryegrass [22] = test: Test Example 3: weedkilling efficacy through soil treatment; I: Italian ryegrass
Procedure, shortened: as §2

common wind-grass [23] = test: Test Example 3: weedkilling efficacy through soil treatment; J: common wind-grass
Procedure, shortened: as §2

transplanted rice = test: Test Example 1: preemergent weed treatment in the submerged state, effect on crop; a: transplanted rice
Procedure, shortened: as §3

beet [24] = test: Test Example 4: foliar treatment, effect on crop; f: beet
Procedure, shortened: as §1

soybean [25] = test: Test Example 3: soil treatment, effect on crop; d: soybean
Procedure, shortened: as §2

Italian ryegrass [26] = test: Test Example 4: weedkilling efficacy by foliar treatment; I: Italian ryegrass
Procedure, shortened: as §1

barnyard grass [27] = test: Test Example 4: weedkilling efficacy by foliar treatment; F: barnyard grass
Procedure, shortened: as §1

Indian mallow [28] = test: Test Example 4: weedkilling efficacy by foliar treatment; K: Indian mallow
Procedure, shortened: as §1

wheat [29] = test: Test Example 4: foliar treatment, effect on crop; e: wheat
Procedure, shortened: as §1

soybean [30] = test: Test Example 4: foliar treatment, effect on crop; d: soybean
Procedure, shortened: as §1

corn [31] = test: Test Example 3: soil treatment, effect on crop; c: corn
Procedure, shortened: as §2

corn [32] = test: Test Example 4: foliar treatment, effect on crop; c: corn
Procedure, shortened: as §1

bulrush [33] = test: Test Example 2: weedkilling efficacy, growth period weed treatment in the submerged state; B: bulrush
Procedure, shortened: as §4

green foxtail [34] = test: Test Example 4: weedkilling efficacy by foliar treatment; E: green foxtail
Procedure, shortened: as §1

catchweed [35] = test: Test Example 3: weedkilling efficacy through soil treatment; O: catchweed
Procedure, shortened: as §2

barnyard grass [36] = test: Test Example 2: weedkilling efficacy, growth period weed treatment in the submerged state; A: barnyard grass
Procedure, shortened: as §4

oval-leafed pondweed [37] = test: Test Example 1: weedkilling efficacy, preemergent weed treatment in the submerged state; C: oval-leafed pondweed
Procedure, shortened: as §3

rapeseed [38] = test: Test Example 4: foliar treatment, effect on crop; g: rapeseed
Procedure, shortened: as §1

barnyard grass [39] = test: Test Example 3: weedkilling efficacy through soil treatment; F: barnyard grass
Procedure, shortened: as §2

wild oat [40] = test: Test Example 4: weedkilling efficacy by foliar treatment; G: wild oat
Procedure, shortened: as §1

birds-eye speedwell [41] = test: Test Example 3: weedkilling efficacy through soil treatment; p: birds-eye speedwell
Procedure, shortened: as §2

common wind-grass [42] = test: Test Example 4: weedkilling efficacy by foliar treatment; J: common wind-grass
Procedure, shortened: as §1

bulrush [43] = test: Test Example 1: weedkilling efficacy, preemergent weed treatment in the submerged state; B: bulrush
Procedure, shortened: as §3

rapeseed [44] = test: Test Example 3: soil treatment, effect on crop; g: rapeseed
Procedure, shortened: as §2

In the case of `CCc1cc(F)nc(NC(=O)C(C)(C)N2COC(C)=C(c3ccccc3)C2=O)c1` [B-2-39], the “O (catchweed) weedkilling efficacy grade” value (catchweed [1]) is reported as 4 (weed kill ratio 70% or more, less than 90%), the “K (Indian mallow) weedkilling efficacy grade” value (Indian mallow [2]) is reported as 2 (weed kill ratio 20% or more, less than 40%) and the “P (birds-eye speedwell) weedkilling efficacy grade” value (birds-eye speedwell [3]) is reported as 5 (weed kill ratio 90% or more, (practically complete withering)). The “H (black-grass) weedkilling efficacy grade” value (black-grass [4]) was 5 (weed kill ratio 90% or more, (practically complete withering)), the “D (crabgrass) weedkilling efficacy grade” value (crabgrass [5]) was 5 (weed kill ratio 90% or more, (practically complete withering)) and the “N (chickweed) weedkilling efficacy grade” value (chickweed [6]) was 4 (weed kill ratio 70% or more, less than 90%). The “b (directly sown rice) effect on crop grade” value (directly sown rice [7]) was 4 (weed kill ratio 70% or more, less than 90%), the “M (fig-leafed goosefoot) weedkilling efficacy grade” value (fig-leafed goosefoot [8]) was 5 (weed kill ratio 90% or more, (practically complete withering)) and the “f (beet) effect on crop grade” value (beet [9]) was 3 (weed kill ratio 40% or more, less than 70%). The “A (barnyard grass) weedkilling efficacy grade” value (barnyard grass [10]) was 5 (weed kill ratio 90% or more, (practically complete withering)), the “E (green foxtail) weedkilling efficacy grade” value (green foxtail [11]) was 5 (weed kill ratio 90% or more, (practically complete withering)) and the “L (redroot pigweed) weedkilling efficacy grade” value (redroot pigweed [12]) was 3 (weed kill ratio 40% or more, less than 70%). The “C (oval-leafed pondweed) weedkilling efficacy grade” value (oval-leafed pondweed [13]) was 5 (weed kill ratio 90% or more, (practically complete withering)), the “H (black-grass) weedkilling efficacy grade” value (black-grass [14]) was 5 (weed kill ratio 90% or more, (practically complete withering)) and the “N (chickweed) weedkilling efficacy grade” value (chickweed [15]) was 4 (weed kill ratio 70% or more, less than 90%). For the same compound, the “b (directly sown rice) effect on crop grade” value (directly sown rice [16]) was 4 (weed kill ratio 70% or more, less than 90%), the “G (wild oat) weedkilling efficacy grade” value (wild oat [17]) was 5 (weed kill ratio 90% or more, (practically complete withering)) and the “e (wheat) effect on crop grade” value (wheat [18]) was 0 (weed kill ratio 5% or less (practically no effect)). For the same compound, the “D (crabgrass) weedkilling efficacy grade” value (crabgrass [19]) was 5 (weed kill ratio 90% or more, (practically complete withering)), the “L (redroot pigweed) weedkilling efficacy grade” value (redroot pigweed [20]) was 3 (weed kill ratio 40% or more, less than 70%) and the “M (fig-leafed goosefoot) weedkilling efficacy grade” value (fig-leafed goosefoot [21]) was 4 (weed kill ratio 70% or more, less than 90%). The “I (Italian ryegrass) weedkilling efficacy grade” value (Italian ryegrass [22]) was 5 (weed kill ratio 90% or more, (practically complete withering)), the “J (common wind-grass) weedkilling efficacy grade” value (common wind-grass [23]) was 5 (weed kill ratio 90% or more, (practically complete withering)) and the “a (transplanted rice) effect on crop grade” value (transplanted rice) was 1 (weed kill ratio 5% or more, less than 20%). For the same compound, the “f (beet) effect on crop grade” value (beet [24]) was 4 (weed kill ratio 70% or more, less than 90%), the “d (soybean) effect on crop grade” value (soybean [25]) was 0 (weed kill ratio 5% or less (practically no effect)) and the “I (Italian ryegrass) weedkilling efficacy grade” value (Italian ryegrass [26]) was 5 (weed kill ratio 90% or more, (practically complete withering)). The “F (barnyard grass) weedkilling efficacy grade” value (barnyard grass [27]) was 5 (weed kill ratio 90% or more, (practically complete withering)), the “K (Indian mallow) weedkilling efficacy grade” value (Indian mallow [28]) was 4 (weed kill ratio 70% or more, less than 90%) and the “e (wheat) effect on crop grade” value (wheat [29]) was 0 (weed kill ratio 5% or less (practically no effect)). The “d (soybean) effect on crop grade” value (soybean [30]) was 4 (weed kill ratio 70% or more, less than 90%), the “c (corn) effect on crop grade” value (corn [31]) was 0 (weed kill ratio 5% or less (practically no effect)) and the “c (corn) effect on crop grade” value (corn [32]) was 4 (weed kill ratio 70% or more, less than 90%). The “B (bulrush) weedkilling efficacy grade” value (bulrush [33]) was 5 (weed kill ratio 90% or more, (practically complete withering)), the “E (green foxtail) weedkilling efficacy grade” value (green foxtail [34]) was 5 (weed kill ratio 90% or more, (practically complete withering)) and the “O (catchweed) weedkilling efficacy grade” value (catchweed [35]) was 4 (weed kill ratio 70% or more, less than 90%). For the same compound, the “A (barnyard grass) weedkilling efficacy grade” value (barnyard grass [36]) was 5 (weed kill ratio 90% or more, (practically complete withering)), the “C (oval-leafed pondweed) weedkilling efficacy grade” value (oval-leafed pondweed [37]) was 5 (weed kill ratio 90% or more, (practically complete withering)) and the “g (rapeseed) effect on crop grade” value (rapeseed [38]) was 4 (weed kill ratio 70% or more, less than 90%). The “F (barnyard grass) weedkilling efficacy grade” value (barnyard grass [39]) was 5 (weed kill ratio 90% or more, (practically complete withering)), the “G (wild oat) weedkilling efficacy grade” value (wild oat [40]) was 4 (weed kill ratio 70% or more, less than 90%) and the “P (birds-eye speedwell) weedkilling efficacy grade” value (birds-eye speedwell [41]) was 5 (weed kill ratio 90% or more, (practically complete withering)). The “J (common wind-grass) weedkilling efficacy grade” value (common wind-grass [42]) was 5 (weed kill ratio 90% or more, (practically complete withering)), the “B (bulrush) weedkilling efficacy grade” value (bulrush [43]) was 5 (weed kill ratio 90% or more, (practically complete withering)) and the “g (rapeseed) effect on crop grade” value (rapeseed [44]) was 4 (weed kill ratio 70% or more, less than 90%).
